According to the Kinase Knowledgebase extract (Sharma et al. 2016):

What follows are molecules tested against MAPK14 (human) (UniProt Q16539) (assay: Assessment of MAPK14 Kinase Activity). Details: not given.
Sequence of MAPK14 (human) (Q16539 whole entry, looked up): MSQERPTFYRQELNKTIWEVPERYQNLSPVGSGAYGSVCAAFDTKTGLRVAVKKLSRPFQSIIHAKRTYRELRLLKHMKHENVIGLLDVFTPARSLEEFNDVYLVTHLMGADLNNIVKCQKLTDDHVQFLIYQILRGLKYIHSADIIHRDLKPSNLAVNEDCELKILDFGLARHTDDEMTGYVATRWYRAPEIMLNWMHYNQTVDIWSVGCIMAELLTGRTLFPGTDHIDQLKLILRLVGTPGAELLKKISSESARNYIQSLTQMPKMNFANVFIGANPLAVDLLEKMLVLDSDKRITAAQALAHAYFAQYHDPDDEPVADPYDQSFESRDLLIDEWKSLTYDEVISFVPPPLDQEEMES

Point of comparison: `Cc1ncccc1-c1nnc2c(F)c(-c3cc(C(=O)NC4CC4)cc(F)c3C)c(F)cn12`, IC50 81 nM. Against it:
- CSc1nc(-c2ccc(F)cc2)c(-c2ccnc(N(C)C)c2)[nH]1 — 2.6-fold higher, 210 nM
- Cc1c(NC(=O)Nc2nnc(C3CCCO3)s2)sc(CN2CCOCC2)c1Cl (stereo not drawn) — not separable, < 5000 nM
- Cc1cccc(Nc2c(C(=O)N3CCC[C@H]3CO)sc3c2ccc(=O)n3-c2c(F)cccc2F)n1 — not separable, 5 to 500 nM
- CON=C(c1ccccc1)c1cnn(-c2ccccc2)c1N — higher, > 100000 nM
- OC1CCN(c2[nH]nc(-c3ccc(Cl)cc3)c2-c2ccncc2)CC1 — within 1.5-fold, 110 nM
- Cc1ccc(C(=O)NC2CC2)cc1Nc1ncc(C(=O)NCc2ccccc2)s1 — lower, < 50 nM
- O=C(Nc1ccc(OCCN2CCOCC2)c2ccccc12)c1cccc(-c2cccc(F)c2)c1 — 12-fold higher, 1000 nM
- CC(C)Nc1ncc2c(n1)N(CC(=O)O)C(=O)N(c1ccccc1Cl)C2 — not separable, < 10000 nM
- CCc1nc(-c2ccc(OC)cc2)[nH]c1-c1ccncc1 — 100-fold higher, 8200 nM
- CSc1nc(-c2ccc(F)cc2)c(-c2ccnc(N(C)Cc3ccccc3)c2)[nH]1 — 11-fold higher, 870 nM
- CN1CCN(c2[nH]nc(-c3ccc(Cl)cc3)c2-c2ccncc2)CC1 — 1.6-fold lower, 50 nM
- Cc1c(F)cc(C(=O)NC2CC2)cc1-c1ccn2c(C(C)(C)N)nnc2c1 — 5.3-fold lower, 15.4 nM
- CC(Oc1nncc2cc(Nc3ccc(F)cc3F)ccc12)C(F)(F)F (stereo not drawn) — 26-fold lower, 3.1 nM
- Fc1ccc(-c2nc(SCc3ccccc3)[nH]c2-c2ccnc(Cl)c2)cc1 — 23-fold higher, 1900 nM
- CONC(=O)c1ccc(C)c(Nc2noc(-c3ccccc3)n2)c1 — lower, < 50 nM
- OC1CCCN(c2[nH]nc(-c3ccc(Cl)cc3)c2-c2ccncc2)C1 (stereo not drawn) — 2.3-fold higher, 190 nM
- Cc1n[nH]c(C)c1-c1nncc2nc(Nc3ccc(F)cc3F)ccc12 — 51-fold lower, 1.6 nM
- Cc1c(NC(=O)Nc2cc(C(C)(C)C)nn2-c2ccc(F)cc2)sc(CN2CCOCC2)c1Cl — not separable, < 5000 nM

Molecule `O=C1Nc2nc(Nc3ccc(O)cc3)ncc2CN1c1ccccc1Cl` has a Kd of 32 nM.

Same assay, conditions: concentration not given here

Work on `CC1=C(C(=O)Nc2cc3cn[nH]c3cc2F)C(c2ccc(C(F)(F)F)cc2)CC(=O)N1` (stereo not drawn) yielded an inhibition of -3%.

Each molecule was assayed against MAPK14 (human) (UniProt Q16539) (assay: Inhibition of MAPK14 Kinase Activity). Details: not given.

Point of comparison: `CCC(=O)n1c(=O)c(-c2ccc(F)cc2)c(-c2ccncc2)c2ccccc21`, IC50 3100 nM. Against it:
- Cc1ccc(C(=S)NC2CC2)cc1-c1cc2cnn(-c3ccc(F)cc3F)c2n(C)c1=S — lower, ≤ 100 nM
- O=c1ccc2c(-c3ccc(F)cc3F)nccc2n1-c1ccccc1Cl — 330-fold lower, 9.3 nM
- CNC(=O)Nc1cc(COc2ccc(NC(=O)Nc3cc(C(C)(C)C)nn3-c3ccc(C)cc3)c3ccccc23)ccn1 — lower, < 10 nM
- COc1ccccc1CCNc1nc(Nc2ccc3ncccc3c2)nc(NC(Cc2c[nH]c3ncccc23)C(N)=O)n1 (stereo not drawn) — higher, > 40000 nM
- O=c1c(-c2ccc(F)cc2)c(-c2ccncc2)c2ccccc2n1CCc1ccccc1 — 2.6-fold higher, 8200 nM
- Cc1c(F)cc(C(=O)NC2CCCCC2)cc1-c1ccc(C(=O)NCC(C)(C)C)cc1C(=O)Nc1nccs1 — within 1.5-fold, 3160 nM
- CC(C)(C)c1cc(NC(=O)NCc2cc(F)ccc2Oc2ccc3c(cnn3CCO)c2)n(-c2ccc(CO)cc2)n1 — lower, < 1 nM
- COc1ccccc1CCNc1nc(NC(Cc2c[nH]c3ncccc23)C(N)=O)nc(N(C)[C@@H](C)c2ccccc2)n1 (stereo partly drawn) — higher, > 40000 nM
- COCC(=O)Nc1cc(Oc2ccc(NC(=O)Nc3cc(C(C)(C)C)nn3-c3ccc(C)nc3)c3ccccc23)ccn1 — lower, < 200 nM
- Cc1ccc(C(=O)NC2CC2)cc1-c1cc2cnnc(-c3ccccc3Cl)c2n(C)c1=O — 1500-fold lower, 2.1 nM
- NC(=O)c1cc(-c2onc(-c3ccncc3)c2-c2ccc(F)cc2)ccn1 — 9.7-fold higher, 30000 nM
- CC(C)c1nnc2ccc(CCc3cc(F)cc(F)c3)cn12 — 36-fold lower, 85 nM
- Cc1cc(OCc2ccc(F)cc2F)c(Br)c(=O)n1Cc1cnc(CO)cn1 — 6.9-fold lower, 450 nM
- N#Cc1cccc(Cn2cnc(-c3ccc(F)cc3)c2-c2ccnc(NC3CC3)n2)c1 — 110-fold lower, 27.6 nM
- CC(C)Nc1cc(-c2nc3ccncc3nc2-c2ccc(F)cc2)ccn1.CC(C)Nc1cc(-c2nc3cnccc3nc2-c2ccc(F)cc2)ccn1 — 5.9-fold lower, 522 nM
- Fc1ccc(-c2occc2-c2ccncc2)cc1 — 4200-fold lower, 0.74 nM
- CC(C)c1nnc2ccc(S(=O)(=O)c3ccccc3CNC(=O)Nc3cc(C(C)(C)C)nn3-c3ccc(O)c(Cl)c3)cn12 — 10-fold lower, 302 nM
- CCOc1ccc(-c2onc(-c3ccncc3)c2-c2ccc(F)cc2)cc1 — 3.2-fold higher, 10000 nM
- C=CCN(c1nc(NCCc2c[nH]c3ncccc23)nc(NCc2cccn2C)n1)C1CCCCC1 — higher, > 40000 nM
- O=c1ccc2c(-c3ccc(F)cc3F)nc(O)cc2n1-c1c(F)cccc1F — 1900-fold lower, 1.6 nM
- Cc1cc(OCc2ccc(F)cc2F)c(Br)c(=O)n1Cc1cccnc1 — 21-fold lower, 150 nM
- CNC(=O)c1ccc(Cn2c(C)cc(OCc3ccc(F)cc3F)c(Br)c2=O)cc1 — 120-fold lower, 25 nM
- CCN1CCN(c2ccc3ncn(-c4cc(C(=O)NC5CC5)ccc4C)c(=O)c3c2)CC1 — 130-fold lower, 23 nM
- Cc1ccc(C(=O)NC2CC2)cc1-c1ccc(C(=O)N(CCO)Cc2ccccc2)cc1 — not separable, < 10000 nM
- Cc1ccc(C(=O)NC2CC2)cc1-c1cc2cnnc(-c3ccc(F)cc3C)c2n(C)c1=O — 1000-fold lower, 3.1 nM

With `CC(C)(C)c1cc(NC(=O)Nc2ccc(OCCN3CCOCC3)c3ccccc23)no1` the Kd was < 100 nM.
